Assay results published in patent publication EP1277738B1, “CONDENSED HETEROARYL DERIVATIVES” (Astellas Pharma Inc., priority 2000, dated 2001).
Where two headings read alike, the source gives them in different places.

How the values were obtained:
A375 cells = test: Melanoma cell growth inhibition (Alamar Blue); format: cell-based; conditions: Homo sapiens
Description: A375 cells from a melanoma cell line were cultured in DMEM medium (GIBCO) supplemented with 10% fetal bovine serum. A375 cells at 10,000 cells/100µl were added to a 96 well plate which contained 1µl/well of the test compounds (final concentration of 0.001 - 30µM). After incubation for over 46 hours, Alamar Blue reagent was added to the medium (10µl/well).

HCT116 cells = test: Colon cancer cell growth inhibition (Alamar Blue); format: cell-based; conditions: HCT116 colon cancer cell line, incubation over 72 hours; result in words
Description: Test Example 2 Colon cancer cell growth inhibition
HCT116 cells from a colon cancer cell line were cultured in McCoy's 5A medium (GIBCO) supplemented with 10% fetal bovine serum. HCT116 cells were inoculated on a 96 well plate (5000 cells/well) followed by overnight incubation. The test compound diluted with the medium was added to the medium in a final concentration of […] (final DMSO concentration, 1%). After incubation over 72 hours, Alamar Blue reagent was added to the medium. Two hours after the addition, a ratio of fluorescent intensity at an excitation wavelength of 530 nm to that at an emission wavelength of 590 nm was measured to determine the IC50. Co 14, Co 24, Co 25, Co 31, Co 46 and Co 47 of the present invention exerted an excellent cancer cell growth inhibition activity.

PI3K (p110α subtype) = PI3K (p110α subtype) (Bos taurus, UniProt P32871); test: Inhibition of PI3K (p110α subtype); format: biochemical; conditions: bovine p110α from baculovirus expression system; PI substrate, [γ-32P] ATP, 37°C for 15 minutes
PI3K (p110α subtype), sequence (P32871 whole entry): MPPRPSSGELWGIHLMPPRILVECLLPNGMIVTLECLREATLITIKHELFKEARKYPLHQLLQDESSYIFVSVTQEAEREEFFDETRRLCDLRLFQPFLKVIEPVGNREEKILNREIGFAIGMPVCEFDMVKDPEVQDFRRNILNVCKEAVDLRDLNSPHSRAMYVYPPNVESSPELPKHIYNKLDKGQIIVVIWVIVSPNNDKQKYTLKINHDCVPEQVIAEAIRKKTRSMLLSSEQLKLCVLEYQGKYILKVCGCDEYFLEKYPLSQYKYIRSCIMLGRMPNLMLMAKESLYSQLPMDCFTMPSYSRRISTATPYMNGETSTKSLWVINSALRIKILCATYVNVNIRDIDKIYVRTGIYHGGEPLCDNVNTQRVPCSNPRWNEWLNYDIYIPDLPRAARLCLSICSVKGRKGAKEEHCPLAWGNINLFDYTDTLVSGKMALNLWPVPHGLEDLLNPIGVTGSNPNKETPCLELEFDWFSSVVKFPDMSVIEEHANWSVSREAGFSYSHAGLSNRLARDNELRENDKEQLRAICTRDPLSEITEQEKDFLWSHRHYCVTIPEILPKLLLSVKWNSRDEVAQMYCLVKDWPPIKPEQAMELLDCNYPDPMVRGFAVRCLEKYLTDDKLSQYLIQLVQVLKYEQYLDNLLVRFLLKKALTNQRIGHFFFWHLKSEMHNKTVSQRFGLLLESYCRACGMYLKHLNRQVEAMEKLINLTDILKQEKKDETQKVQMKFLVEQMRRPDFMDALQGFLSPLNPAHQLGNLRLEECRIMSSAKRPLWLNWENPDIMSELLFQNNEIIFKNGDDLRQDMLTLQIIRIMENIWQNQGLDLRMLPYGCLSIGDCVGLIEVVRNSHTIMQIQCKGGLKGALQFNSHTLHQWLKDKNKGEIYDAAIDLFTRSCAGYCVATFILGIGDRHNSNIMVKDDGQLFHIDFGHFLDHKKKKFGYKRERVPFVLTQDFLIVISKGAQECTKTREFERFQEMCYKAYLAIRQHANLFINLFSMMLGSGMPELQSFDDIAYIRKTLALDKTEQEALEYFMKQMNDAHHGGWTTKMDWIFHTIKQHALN
Description: Test Example 1 Inhibition of PI3K (p110α subtype)
Inhibition was determined using enzyme (bovine p110α) prepared in the baculovirus expression system. Bovine p110 was prepared according to a modification from the method by I. Hiles et al., Cell, 70, 419 (1992). Each compound to be assayed was dissolved in DMSO and the obtained 10 mM DMSO solution was serially diluted with DMSO.
The compound (0.5µl) to be assayed and enzyme were mixed in 25µl of buffer solution (40 mM Tris-HCl (pH 7.4), 200 mM NaCl, 2 mM dithiothreitol, 5 mM MgCl2). Then, 25µl of 5 mM Tris-HCl (pH 7.4) buffered solution supplemented with 10µg PI (Sigma), 2µ Ci [γ-^32P] ATP (Amersham Pharmacia) and 80µM nonradiolabeled ATP (Sigma) was added to the mixture to initiate the reaction. After reacting at 37°C for 15 minutes, 200µl of 1M HCl and 400µl of CHCl3 / MeOH (1 : 1) were added to the reaction mixture. The resulting mixture was stirred and then centrifuged. After the organic layer was again extracted twice with 150µl of MeOH / 1M HCl (1 : 1). The radioactivity was measured using Cerenkov light.

[1] = A-375, A375 melanoma cell line, incubation for over 46 hours, 0.001 - 30µM, range is stated for the group of ten compounds, read-out: IC50

Row | Compound | IC50 (A375 cells; [1]) | also measured
1 | Oc1cccc(-c2nc(N3CCOCC3)c3ncccc3n2)c1 [Co 172, 3-(4-morpholinopyrido[3,2-d]pyrimidin-2-yl)phenol] | 330 to 4260 nM | 
2 | Oc1cccc(-c2nc(N3CCOCC3)c3ccncc3n2)c1 [Co 174, 3-(4-morpholinopyrido[3,4-d]pyrimidin-2-yl)phenol] | 330 to 4260 nM | 
3 | Oc1cccc(-c2nc(N3CCOCC3)c3cnccc3n2)c1 [Co 164, 3-(4-morpholinopyrido[4,3-d]pyrimidin-2-yl)phenol] | 330 to 4260 nM | 
4 | CC(=O)Nc1cccc(-c2nc(N3CCOCC3)c3oc4ncccc4c3n2)c1 [Co 24] |  | cancer cell growth inhibition activity (HCT116 cells): excellent; IC50 (PI3K (p110α subtype)): < 1000 nM
5 | Nc1ccc(C(=O)Nc2cccc(-c3nc(N4CCOCC4)c4oc5ncccc5c4n3)c2)cn1 [Co 17, 6-amino-3'-.(4-morpholinopyrido[3',2':4,5]furo[3,2-d]pyrimidin-2-yl)nicotinanilide] |  | IC50 (PI3K (p110α subtype)): < 1000 nM
6 | COc1ccc2nc(-c3cccc(O)c3)nc(N3CCOCC3)c2c1 [Co 186, 3-(6-methoxy-4-morpholinoquinazolin-2-yl)phenol] | 330 to 4260 nM | 
7 | Oc1cccc(-c2nc(N3CCOCC3)c3nccnc3n2)c1 [Co 191, 3-(4-morpholinopteridin-2-yl)phenol] | 330 to 4260 nM | 
8 | O=C(Nc1cccc(-c2nc(N3CCOCC3)c3oc4ncccc4c3n2)c1)c1ccccn1 [Co 10] |  | IC50 (PI3K (p110α subtype)): < 1000 nM
9 | c1cc(OCCN2CCNCC2)cc(-c2nc(N3CCOCC3)c3oc4ncccc4c3n2)c1 [Co 69, 4-morpholino-2-[3-(2-piperazin-1-ylethoxy)phenyl]pyrido[3',2':4,5]furo[3,2-d]pyrimidine] | 330 to 4260 nM | 
10 | Nc1ccc(-c2nc(N3CCOCC3)c3oc4ncccc4c3n2)cc1 [Co 33, 4-(4-morpholinopyrido[3',2':4,5]furo[3,2-d]pyrimidin-2-yl)aniline] | 330 to 4260 nM | 
11 | Oc1cccc(-c2nc(N3CCOCC3)c3sccc3n2)c1 [Co 190, 3-(4-morpholinothieno[3,2-d]pyrimidin-2-yl)phenol] | 330 to 4260 nM | 
12 | Oc1cccc(-c2nc(N3CCOCC3)c3oc4ncccc4c3n2)c1 [Co 50, 3-(4-morpholinopyrido[3',2':4,5]furo[3,2-d]pyrimidin-2-yl)phenol] |  | IC50 (A375 cells; A-375, 46 h): 330 to 4260 nM
